Columns and labels:
[1] = Octan-1-ol-aqueous buffer partition coefficient, log P of the compound at 10 to 20 mg at pH 7.4 by UV-spectroscopic analysis; type: physicochemical
[2] = Dissociation constant, pKa of the compound in water-ethyl alcohol; type: physicochemical
[3] = organism: Rattus norvegicus; assay: Hypotensive activity in rat assessed as change in mean blood pressure relative to control; type: functional; set-up: concentration or dose not given beside the values
[4] = system: Rattus norvegicus; assay: Peripheral adrenergic activity in iv dosed pithed rat assessed as change in mean blood pressure; type: functional
[5] = Retardation factor, deltaRm of the compound at pH 13 by TLC analysis; type: physicochemical
[6] = system: Rattus norvegicus; assay: Toxicity in iv dosed pithed rat; type: organism-based; conditions: in vivo

Row | SMILES | logD [1] | pKa [2] | Activity [3] | pD2 [4] | deltaRm [5] | LD50 [6]
1 | FC(F)(F)c1ccccc1N=C1NCCN1 | 0 | 8.8 | <10% | 6.13 |  | 
2 | Clc1ccc(N=C2NCCN2)c(Cl)c1 | 0.69 | 8.65 | 15% | 6.71 | 0.76 | 
3 | Clc1cc(Cl)c(N=C2NCCN2)c(Cl)c1 |  | 7.6 | 15% | 7.13 | 1 | 
4 | Cc1cc(C)c(N=C2NCCN2)c(C)c1 |  |  |  | 7.8 |  | 
5 | Oc1cc(Cl)c(N=C2NCCN2)c(Cl)c1 | -0.4 | 7.95 | <10% | 7.37 |  | 
6 | Clc1cc(Cl)c(N=C2NCCN2)cc1Cl | 1.63 | 7.7 |  |  | 1.2 | 
7 | Clc1cccc(Cl)c1NC1=NCCN1 [CLONIDINE] | 0.83 | 8.05 | 15% | 7.66 | 0.38 | 
8 | CCc1ccccc1N=C1NCCN1 |  |  |  | 7.55 |  | 
9 | Brc1cccc(Br)c1N=C1NCCN1 | 1.15 | 7.95 | 15% | 7.28 | 0.61 | 
10 | Fc1cccc(F)c1N=C1NCCN1 | 0.02 | 8.4 | <10% | 7.23 | 0.24 | 
11 | c1ccc(NC2=NCCN2)cc1 | -1.8 | 10.4 | <10% | 5.84 | 0 | 
12 | Cc1cccc(Cl)c1N=C1NCCN1 | -0.4 | 9.2 | 15% | 7.74 | 0.45 | 
13 | Brc1ccc(N=C2NCCN2)cc1 | -0.5 | 9.65 | <10% | 6.09 | 0.58 | 
14 | CC(C)c1cccc(C(C)C)c1N=C1NCCN1 | -0.21 | 10.7 | <10% | 5.79 | 1.32 | 
15 | COc1ccc(OC)c(N=C2NCCN2)c1 | -1.78 | 10.2 | <10% | 6.98 | -0.42 | 
16 | Cc1cc(O)cc(C)c1N=C1NCCN1 |  |  |  | 7.51 |  | 
17 | COc1cc(OC)c(N=C2NCCN2)cc1Cl | -1.37 | 10.2 | <10% | 6.68 | -0.07 | 
18 | Cc1ccc(Cl)cc1N=C1NCCN1 | -0.3 | 9.5 | <10% | 7.64 | 0.72 | 
19 | COc1cc(C)c(N=C2NCCN2)c(C)c1 |  |  |  |  |  | 54 µM
20 | COc1cc(C)ccc1N=C1NCCN1 | -1.56 | 10.6 | <10% | 6.58 | -0.03 | 
21 | Cc1ccc(N=C2NCCN2)c(C)c1 | -1.46 | 10.7 | >10% | 7.74 | 0.43 | 
22 | CCc1cccc(CC)c1NC1=NCCN1 | -0.84 | 10.6 | >10% | 7.61 | 0.95 | 
23 | Clc1ccc(Cl)c(N=C2NCCN2)c1 | 0.95 | 8 | <10% | 7.65 | 0.71 | 
24 | Cc1ccc(NC2=NCCN2)c(Cl)c1 [TOLONIDINE] | -0.28 | 9.55 | 15% | 7.08 |  | 
25 | Cc1cccc(C)c1N=C1NCCN1 | -1.65 | 10.5 | <10% | 7.74 | 0.42 | 
26 | Cc1cc(Cl)ccc1N=C1NCCN1 | -0.58 | 9.75 | <10% | 7.11 | 0.75 | 
